Test results: patent publication US10828305B2 (SHANGHAI PHARMACEUTICALS HOLDING CO., LTD., priority 2016, dated 2020)

What was measured:
ErbB2 kinase = ErbB2 kinase (Homo sapiens, UniProt P04626); assay: Enzymatic experiment on ErbB2 (HTRF kinEASE-TK); type: biochemical; conditions: ATP 4 μM; read-out: Kinase IC50 (nM) in vitro ErbB2
Protocol: (§1) Enzymatic Experiment on EGFR/ErbB2
(§2) Firstly, preparing 1× reaction buffer required for the kinase, 5× Enzymatic buffer (HEPES 20 mM pH7.0, NaN3 0.1%, BSA 0.05%, sodium orthovanadate 0.5 mM) in the HTRF kinEASE-TK kit was diluted to 1 time with deionized water, 50 nM Supplement Enzymatic buffer (SEB reagent), 1 mM MnCl2, 5 mM MgCl2 and 1 mM DTT were added. Secondly, preparing 5× compound, 10 mM test compound stock solution was diluted in multiple steps with DMSO in a 96-well compound plate to prepare 100× compound as initial concentration, which was then used as the first concentration to perform a 3-fold gradient dilution with DMSO to obtain 10 concentrations. Afterwards, 1 μl gradient dilution was added to 19 μl 1× reaction buffer to prepare 5× compound for use. Then 2 μl 5× compound was transferred from the 96 well plate into a 384-well plate. To the compound-free control wells was added with 2 μl the following liquid: 19 μl 1× reaction buffer with addition of 1 μl DMSO. To the blank control wells was added 2 μl 250 mM EDTA. The third step was enzymatic reaction, the kinase, substrate (TK Substrate-biotin) and ATP were formulated into 2.5× enzyme/substrate mixture and 2.5×ATP solution using 1× reaction buffer respectively. The final concentration of ErbB2 kinase was 0.06 ng/μl, the final concentration of ATP was 4 μM; the final concentration of EGFR kinase was 0.06 units/μl, the final concentration of ATP was 1.65 μM; 4 μl 2.5× enzyme/substrate mixture was added to a 384-well plate, which was incubated at room temperature for 5 minutes; 4 μl 2.5×ATP solution was added to each well and the mixture was allowed to react for 30 minutes at room temperature. The fourth step was termination of the reaction, HTRF Detection buffer was used to prepare a mixture of 2×TK Antibody-Eu(K) and Sa-XL665, the amount of TK Antibody-Eu(K) was 5 μl per well. After the enzymatic reaction was performed for 30 minutes, 10 μl of the above liquid was added to the 384-well plate and the mixture was allowed to react at room temperature for 1 hour. The data was measured on EnVision™, the laser of 337 nm wavelength was selected as the excitation light, RFU665 nM and RFU620 nM were measured, and […]/RFU620 nM×10000 was used as the final data for analysis.

EGFR kinase = EGFR kinase (Homo sapiens, UniProt P00533); assay: Enzymatic experiment on EGFR (HTRF kinEASE-TK); type: biochemical; conditions: ATP 1.65 μM; read-out: Kinase IC50 (nM) in vitro EGFR
Sequence of EGFR kinase (P00533 25-1210): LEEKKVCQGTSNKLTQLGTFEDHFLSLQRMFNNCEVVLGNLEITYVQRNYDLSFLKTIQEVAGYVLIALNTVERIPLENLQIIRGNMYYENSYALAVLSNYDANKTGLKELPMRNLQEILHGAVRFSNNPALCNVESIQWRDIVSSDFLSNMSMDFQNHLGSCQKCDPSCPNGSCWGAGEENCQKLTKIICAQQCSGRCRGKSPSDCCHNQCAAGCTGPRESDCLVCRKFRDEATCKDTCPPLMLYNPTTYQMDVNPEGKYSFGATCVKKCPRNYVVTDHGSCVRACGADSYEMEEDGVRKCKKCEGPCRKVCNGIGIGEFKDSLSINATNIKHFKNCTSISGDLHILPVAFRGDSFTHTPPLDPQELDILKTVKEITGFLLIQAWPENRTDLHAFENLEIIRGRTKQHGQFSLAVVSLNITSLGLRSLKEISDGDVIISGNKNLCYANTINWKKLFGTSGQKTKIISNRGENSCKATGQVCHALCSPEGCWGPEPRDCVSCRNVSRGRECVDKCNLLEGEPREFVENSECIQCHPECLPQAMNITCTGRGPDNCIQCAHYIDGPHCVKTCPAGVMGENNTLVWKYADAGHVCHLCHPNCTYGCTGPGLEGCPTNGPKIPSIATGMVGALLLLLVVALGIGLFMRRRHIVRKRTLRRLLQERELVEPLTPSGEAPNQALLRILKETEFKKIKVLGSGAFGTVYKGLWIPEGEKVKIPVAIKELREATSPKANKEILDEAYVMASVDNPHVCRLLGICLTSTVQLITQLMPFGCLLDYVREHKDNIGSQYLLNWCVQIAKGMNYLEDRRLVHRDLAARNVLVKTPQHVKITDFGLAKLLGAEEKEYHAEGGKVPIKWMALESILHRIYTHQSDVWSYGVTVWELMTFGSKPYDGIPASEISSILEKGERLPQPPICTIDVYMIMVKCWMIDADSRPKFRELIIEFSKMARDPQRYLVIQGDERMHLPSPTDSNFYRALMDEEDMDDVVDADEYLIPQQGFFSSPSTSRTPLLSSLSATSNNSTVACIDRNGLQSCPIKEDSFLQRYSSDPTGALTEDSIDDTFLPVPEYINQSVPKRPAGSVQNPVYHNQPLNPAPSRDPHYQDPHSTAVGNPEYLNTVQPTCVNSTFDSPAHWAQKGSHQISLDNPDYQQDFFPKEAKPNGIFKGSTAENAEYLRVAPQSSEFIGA
Protocol: as §1, §2

N87 = assay: Proliferation inhibition assay in vitro, N87 (CellTiter-Glo); type: cell-based; conditions: Homo sapiens; 72 hours; read-out: IC50(nM) cell N87
Protocol: (§3) Proliferation Inhibition Assay In Vitro of Cell Lines
(§4) 1. Cell culture and inoculation: on the first day of the experiment, normal cultured cells were taken in the exponential growth phase, the cells were dispersed by digesting, then the cell density was adjusted to 8.8×10^4 cells/mL for BT-474 and 6.6×10^4 cells/mL for N87, 90 μl of which were inoculated to each well in a 96-well cell culture plate; after inoculation, the microplate was placed at condition of 37° C., 5% CO2 overnight. 2. Dosing to cells: on the second day of the experiment, the microplate was taken out from incubator, […], of 10× compound was separately added to each well of the microplate, 2 duplicated wells were set for each concentration, 9 dosing concentrations were set for each compound. According to different cell lines, the initial concentration of each compound was different. Upon completion of addition, the microplate was placed at condition of 37° C., 5% CO2 for 72 hours. 3. Data acquisition: the microplate was taken out from the incubator and allowed to stand at room temperature to equilibrate for 30 minutes. 100 μl CellTiter-Glo® Luminescent Cell Viability Assay reaction solution which had been equilibrated at room temperature was added to each well and the microplate was shaken at 1300 rpm for 2 minutes at room temperature. The microplate was centrifuged at 2000 rpm for 1 minute in a HERAEUS Multifuge X1R and then allowed to equilibrate at room temperature for 10 minutes. The […] signal was measured on EnVision™.

BT-474 = assay: Proliferation inhibition assay in vitro, BT-474 (CellTiter-Glo); type: cell-based; conditions: Homo sapiens, 72 hours, read-out: IC50(nM) cell BT-474
Protocol: as §3, §4

Sequence of ErbB2 kinase (P04626 23-1255): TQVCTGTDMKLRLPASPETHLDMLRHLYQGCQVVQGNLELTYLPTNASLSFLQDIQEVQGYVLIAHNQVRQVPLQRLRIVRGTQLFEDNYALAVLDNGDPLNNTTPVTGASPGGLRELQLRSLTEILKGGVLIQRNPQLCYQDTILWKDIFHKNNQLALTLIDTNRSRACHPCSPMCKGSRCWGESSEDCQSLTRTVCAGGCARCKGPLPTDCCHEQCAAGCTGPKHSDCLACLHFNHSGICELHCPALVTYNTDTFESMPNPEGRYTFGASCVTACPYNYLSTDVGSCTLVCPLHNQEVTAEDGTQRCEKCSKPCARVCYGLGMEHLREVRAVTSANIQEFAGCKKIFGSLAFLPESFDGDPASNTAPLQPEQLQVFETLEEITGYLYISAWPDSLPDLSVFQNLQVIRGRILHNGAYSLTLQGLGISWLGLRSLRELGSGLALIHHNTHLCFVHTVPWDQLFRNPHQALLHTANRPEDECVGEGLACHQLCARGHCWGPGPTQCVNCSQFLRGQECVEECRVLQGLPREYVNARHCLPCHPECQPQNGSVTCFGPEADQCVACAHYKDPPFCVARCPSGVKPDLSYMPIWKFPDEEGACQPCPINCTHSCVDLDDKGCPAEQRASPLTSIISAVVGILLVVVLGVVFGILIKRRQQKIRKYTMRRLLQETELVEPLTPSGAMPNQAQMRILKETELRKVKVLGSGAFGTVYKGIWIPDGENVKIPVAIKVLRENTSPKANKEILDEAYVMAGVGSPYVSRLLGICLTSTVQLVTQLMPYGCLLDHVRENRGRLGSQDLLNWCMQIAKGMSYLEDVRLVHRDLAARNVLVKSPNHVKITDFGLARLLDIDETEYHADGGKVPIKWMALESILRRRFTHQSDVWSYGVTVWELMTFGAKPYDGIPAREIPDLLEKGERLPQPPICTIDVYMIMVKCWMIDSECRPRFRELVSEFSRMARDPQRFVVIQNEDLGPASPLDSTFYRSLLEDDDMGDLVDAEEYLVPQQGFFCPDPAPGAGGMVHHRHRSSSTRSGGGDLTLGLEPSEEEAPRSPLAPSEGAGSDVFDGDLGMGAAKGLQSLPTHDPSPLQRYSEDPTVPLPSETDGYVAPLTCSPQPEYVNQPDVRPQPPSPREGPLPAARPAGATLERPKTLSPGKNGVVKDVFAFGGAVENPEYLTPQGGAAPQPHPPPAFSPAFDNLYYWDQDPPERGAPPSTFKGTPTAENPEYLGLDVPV

Compound: Cc1cc(Nc2ncnc3ccc(NC4=NC5(CO4)CC(O)C5)cc23)ccc1Oc1cc2nncn2cn1 (stereo not drawn) [Embodiment 27, 6-((4-((4-([1,2,4]triazolo[4,3-c]pyrimidin-7-yloxy)-3-methylphenyl)amino)quinazolin-6-yl)amino)-7-oxa-5-azaspiro[3,4]oct-5-en-2-ol]
- IC50 (ErbB2 kinase): 1.92 nM
- IC50 (EGFR kinase): 8.1 nM
- IC50 (N87): 543 nM
- IC50 (BT-474): 112 nM

Compound: Cc1cc(Nc2ncnc3ccc(NC4=NC5(CO4)CN(C)C5)cc23)ccc1Oc1cc2nncn2cn1 [Embodiment 30, N^4-(4-([1,2,4]triazolo[4,3-c]pyrimidin-7-yloxy)-3-methylphenyl)-N^6-(2-methyl-7-oxa-2,5-diazaspiro[3.4]oct-5-en-6-yl)quinazoline-4,6-diamine]
- IC50 (ErbB2 kinase): 4.9 nM
- IC50 (EGFR kinase): 17.3 nM
- IC50 (N87): 771 nM
- IC50 (BT-474): 141 nM

Compound: Cc1cc(Nc2ncnc3ccc(NC4=NCC5(CCN(C)CC5)O4)cc23)ccc1Oc1cc2nncn2cn1 [Embodiment 31, N^4-(4-([1,2,4]triazolo[4,3-c]pyrimidin-7-yloxy)-3-methylphenyl)-N^6-(8-methyl-1-oxa-3,8-diazaspiro[4.5]dec-2-en-2-yl)quinazoline-4,6-diamine]
- IC50 (ErbB2 kinase): 10.1 nM
- IC50 (EGFR kinase): 57.4 nM
- IC50 (N87): 433 nM
- IC50 (BT-474): 187 nM

Compound: CNC(=O)CN1CCC(Oc2cc3c(Nc4ccc(Oc5cc6nncn6cn5)c(C)c4)ncnc3cc2OC)CC1 [Embodiment 32, 2-(4-(7-methoxy-4-(3-methyl-4-([1,2,4]triazolo[4,3-c]pyrimidin-7-yloxy)anilino)quinazolin-6-yl)oxy-1-piperidinyl)-N-methylacetamide]
- IC50 (ErbB2 kinase): 4.3 nM
- IC50 (EGFR kinase): 2 nM
- IC50 (N87): 440 nM
- IC50 (BT-474): 92.6 nM

Compound: COCC(=O)Nc1cccc(-c2ccc3ncnc(Nc4ccc(Oc5cc6nncn6cn5)c(C)c4)c3c2)c1 [Embodiment 34, N-(3-(4-((4-([1,2,4]triazolo[4,3-c]pyrimidin-7-yloxy)-3-methylphenyl)amino)quinazoline-6-yl)phenyl)-2-methoxyacetamide]
- IC50 (ErbB2 kinase): 2.1 nM
- IC50 (EGFR kinase): 8.2 nM
- IC50 (N87): 46.3 nM
- IC50 (BT-474): 55.6 nM

Compound: Cc1cc(Nc2ncnc3ccc(-c4cccc(N)c4)cc23)ccc1Oc1cc2nncn2cn1 [Embodiment 35]
- IC50 (ErbB2 kinase): 1.1 nM
- IC50 (EGFR kinase): 10.9 nM
- IC50 (N87): 52.9 nM
- IC50 (BT-474): 49.6 nM

Compound: Cc1cc(Nc2ncnc3ccc(-c4ccc(CNCCNS(C)(=O)=O)o4)cc23)ccc1Oc1cc2nncn2cn1 [Embodiment 36, N-(2-(((5-(4-((4-([1,2,4]triazolo[4,3-c]pyrimidin-7-yloxy)-3-methylphenyl)amino)quinazolin-6-yl)furan-2-yl)methyl)amino)ethyl)methylsulfonamide]
- IC50 (ErbB2 kinase): 1.5 nM
- IC50 (EGFR kinase): 1.9 nM
- IC50 (N87): 47.5 nM
- IC50 (BT-474): 21.5 nM

Compound: CCOC(=O)Nc1cccc(-c2ccc3ncnc(Nc4ccc(Oc5cc6nncn6cn5)c(C)c4)c3c2)c1 [Embodiment 38, ethyl (3-(4-((4-([1,2,4]triazolo[4,3-c]pyrimidin-7-yloxy)-3-methylphenyl)amino)quinazoline-6-yl)phenyl)carbamate]
- IC50 (ErbB2 kinase): 5 nM
- IC50 (EGFR kinase): 28.1 nM
- IC50 (N87): 86.6 nM
- IC50 (BT-474): 186 nM

Compound: C=CC(=O)N1CCC(Oc2cc3c(Nc4ccc(Oc5cc6nncn6cn5)c(C)c4)ncnc3cc2OC)CC1 [Embodiment 41, 1-(4-((4-((4-([1,2,4]triazolo[4,3-c]pyrimidin-7-yloxy)-3-methylphenyl)amino)-7-methoxyquinazolin-6-yl)oxy)piperidin-1-yl)pro-2-en-1-one]
- IC50 (ErbB2 kinase): 4.3 nM
- IC50 (EGFR kinase): 1.3 nM
- IC50 (N87): 11.7 nM
- IC50 (BT-474): 6.9 nM

Compound: C=C(F)C(=O)N1CCC(Oc2cc3c(Nc4ccc(Oc5cc6nncn6cn5)c(C)c4)ncnc3cc2OC)CC1 [Embodiment 42, 1-(4-((4-((4-([1,2,4]triazolo[4,3-c]pyrimidin-7-yloxy)-3-methylphenyl)amino)-7-methoxyquinazolin-6-yl)oxy)piperidin-1-yl)-2-fluoroprop-2-en-1-one]
- IC50 (ErbB2 kinase): 5.2 nM
- IC50 (EGFR kinase): 8.3 nM
- IC50 (N87): 39.2 nM
- IC50 (BT-474): 36.7 nM

Compound: Cc1cc(Nc2ncnc3ccc(NC4=NC5(CCC5)CO4)cc23)ccc1Oc1cc2nncn2cn1 [Embodiment 44, N^4-(4-([1,2,4]triazolo[4,3-c]pyrimidin-7-yloxy)-3-methylphenyl)-N^6-(7-oxa-5-azaspiro[3.4]oct-5-en-6-yl)quinazoline-4,6-diamine]
- IC50 (ErbB2 kinase): 1.43 nM
- IC50 (EGFR kinase): 11.6 nM
- IC50 (N87): 46 nM
- IC50 (BT-474): 41 nM

Compound: Cc1cc(Nc2ncnc3ccc(NC4=N[C@H](C(C)C)CO4)cc23)ccc1Oc1cc2nncn2cn1 [Embodiment 45, (R)—N^4-(4-([1,2,4]triazolo[4,3-c]pyrimidin-7-yloxy)-3-methylphenyl)-N^6-(4-isopropyl-4,5-dihydrooxazol-2-yl)quinazoline-4,6-diamine]
- IC50 (ErbB2 kinase): 2.8 nM
- IC50 (EGFR kinase): 53.4 nM
- IC50 (N87): 93.4 nM
- IC50 (BT-474): 85.4 nM

Compound: Cc1cc(Nc2ncnc3ccc(NC4=NCC5(CCOCC5)O4)cc23)ccc1Oc1cc2nncn2cn1 [Embodiment 46, N^4-(4-([1,2,4]triazolo[4,3-c]pyrimidin-7-yloxy)-3-methylphenyl)-N^6-(1,8-dioxa-3-azaspiro[4.5]dec-2-en-2-yl)quinazoline-4,6-diamine]
- IC50 (ErbB2 kinase): 12 nM
- IC50 (EGFR kinase): 51.6 nM
- IC50 (N87): 316 nM
- IC50 (BT-474): 172 nM

Compound: Cc1cc(Nc2ncnc3ccc(NC4=NC5(CCOCC5)CO4)cc23)ccc1Oc1cc2nncn2cn1 [Embodiment 47, N^4-(4-([1,2,4]triazolo[4,3-c]pyrimidin-7-yloxy)-3-methylphenyl)-N^6-(3,8-dioxa-1-azaspiro[4.5]dec-1-en-2-yl)quinazoline-4,6-diamine]
- IC50 (ErbB2 kinase): 2.6 nM
- IC50 (EGFR kinase): 31.4 nM
- IC50 (N87): 68.4 nM
- IC50 (BT-474): 35 nM

Compound: Cc1cc(Nc2ncnc3ccc(NC4=NC5(CO4)CC(F)(F)C5)cc23)ccc1Oc1cc2nncn2cn1 [Embodiment 48, N^4-(4-([1,2,4]triazolo[4,3-c]pyrimidin-7-yloxy)-3-methylphenyl)-N^6-(2,2-difluoro-7-oxa-5-azaspiro[3.4]oct-5-en-6-yl)quinazoline-4,6-diamine]
- IC50 (ErbB2 kinase): 1.3 nM
- IC50 (EGFR kinase): 9.4 nM
- IC50 (N87): 64 nM
- IC50 (BT-474): 42.2 nM

Compound: CCNC(=O)NC/C=C/c1ccc2ncnc(Nc3ccc(Oc4cc5nncn5cn4)c(C)c3)c2c1 [Embodiment 49, (E)-1-(3-(4-((4-([1,2,4]triazolo[4,3-c]pyrimidin-7-yloxy)-3-methylphenyl)amino)quinazolin-6-yl)allyl)-3-ethylurea]
- IC50 (ErbB2 kinase): 1.85 nM
- IC50 (EGFR kinase): 28.1 nM
- IC50 (N87): 271 nM
- IC50 (BT-474): 33.4 nM

Compound: CCNC(=O)Nc1cccc(-c2ccc3ncnc(Nc4ccc(Oc5cc6nncn6cn5)c(C)c4)c3c2)c1 [Embodiment 50, 1-(3-(4-((4-([1,2,4]triazolo[4,3-c]pyrimidin-7-yloxy)-3-methylphenyl)amino)quinazolin-6-yl)phenyl)-3-ethylurea]
- IC50 (ErbB2 kinase): 3.6 nM
- IC50 (EGFR kinase): 27.8 nM
- IC50 (N87): 116 nM
- IC50 (BT-474): 104 nM

Compound: Cc1cc(Nc2ncnc3ccc(-c4cccc(NC(=O)/C=C/c5cccnc5)c4)cc23)ccc1Oc1cc2nncn2cn1 [Embodiment 51, (E)-N-(3-(4-((4-([1,2,4]triazolo[4,3-c]pyrimidin-7-yloxy)-3-methylphenyl)amino)quinazolin-6-yl)phenyl)-3-(pyridin-3-yl)acryiamide]
- IC50 (ErbB2 kinase): 8.41 nM
- IC50 (EGFR kinase): 47.1 nM
- IC50 (N87): 93.7 nM
- IC50 (BT-474): 108 nM
